Tests used:
[1] = as taught in WO 03/26659, cited from earlier work
[2] = Solid-state stability upon storage at room temperature; format: physicochemical; settings: hemi-ethanolate for at least one month, methanolate prolonged storage
Excerpt: In practice, the molar ratio between aripiprazole and ethanol moieties in the isolated product is from 1:0.4 to 1:0.6, preferably 1:0.45 to 1:0.6.

[3] = Solid-state stability towards thermal energy, milling and forced sieving; settings: for change of crystalline structure during milling: milling (Example 7: ball mill 1 minute, IR and XRPD)

SMILES: O=C1CCc2ccc(OCCCCN3CCN(c4cccc(Cl)c4Cl)CC3)cc2N1 [Type I aripiprazole, 7-[4-[4-(2,3-dichlorophenyl)-1-piperazinyl]butoxy]-3,4-dihydrocarbostyril]
- hygroscopicity [1]: significantly hygroscopic

SMILES: O=C1CCc2ccc(OCCCCN3CCN(c4cccc(Cl)c4Cl)CC3)cc2N1 [aripiprazole methanolate, 7-[4-[4-(2,3-dichlorophenyl)-1-piperazinyl]butoxy]-3,4-dihydrocarbostyril]
- stability upon storage [2]: more stable upon prolonged storage at room temperature than the hemi-ethanolate
- change of crystalline structure during milling [3]: does not change its crystalline structure

SMILES: O=C1CCc2ccc(OCCCCN3CCN(c4cccc(Cl)c4Cl)CC3)cc2N1 [Anhydrous Form B, 7-[4-[4-(2,3-dichlorophenyl)-1-piperazinyl]butoxy]-3,4-dihydrocarbostyril]
- water uptake ([1]; in 24 hours): less than 0.4%

SMILES: O=C1CCc2ccc(OCCCCN3CCN(c4cccc(Cl)c4Cl)CC3)cc2N1 [Example 5]
- effect of forced sieving on the crystal structure ([3]; pressed through a 100 μm sieve, IR, XRPD): no detectable effect on the crystal structure

SMILES: O=C1CCc2ccc(OCCCCN3CCN(c4cccc(Cl)c4Cl)CC3)cc2N1 [Example 7]
- change of crystalline structure during milling [3]: crystal structure has not been changed

SMILES: O=C1CCc2ccc(OCCCCN3CCN(c4cccc(Cl)c4Cl)CC3)cc2N1 [Aripiprazole hemi-ethanolate, 7-[4-[4-(2,3-dichlorophenyl)-1-piperazinyl]butoxy]-3,4-dihydrocarbostyril]
- stability upon storage [2]: reasonably stable
- stability towards thermal energy, including milling [3]: rather unstable

Source: patent US7902198B2, “Crystalline aripiprazole solvates” (Synthon BV, priority 2004, dated 2011)
